Measurements published in PMC11362529, “Exploring the neuroprotective potential of Nrf2-pathway activators against annonacin toxicity” (Scientific Reports, 2024).

What was measured:
Type in all cases: cell-based, human
Conditions in all cases: 48 h
[1] = system: 4R-tau transcripts; assay: 4R-tau mRNA and 4R-/3R-tau ratio by RT-qPCR
Description: LUHMES cells were seeded on PLO/FN coated 6-well microplates and the pharmacological treatments were performed as previously explained. The cells were washed in HBSS, prior to being collected for mRNA isolation (RNeasy® Plus Mini Kit, Qiagen, Venlo, Netherlands), following the manufacturer’s instructions. The mRNA concentrations were determined on a Nano-Drop 2000c (Thermo Fisher Scientific) and 1 µg of mRNA was reverse-transcribed into cDNA with the iScript™ Reverse Transcription Supermix for RT-qPCR Kit (Bio-Rad) on a thermal cycler (SensoQuest, Göttingen, Germany). Real-time PCR was performed using SYBR™ Select Master Mix for CFX (Thermo Fisher Scientific) with 30 ng cDNA and 0.4 µM of primers against the respective target genes (Supplementary Table S3), in a 20 µl total volume, on a CFX96 Touch™ Real-Time Cycler (Bio-Rad). The relative expression of mRNA was calculated using the CFX Manager software (ΔΔCt method) from Bio-Rad, and the Ct values of the target-genes were normalized to the reference genes RPL22 and UBQLN1. The data were reported as fold change relative to the control (DMSO-treated) condition.

[2] = system: LUHMES cells; assay: Mitochondrial superoxide (MitoSOX / calcein AM)
Description: As before, cells seeded on PLO/FN-coated 24-well microplates were treated for 48 h with 20 nM of annonacin and the selected concentrations of Nrf2-pathway activators, in glucose-reduced medium. After this period, the medium was removed, and the cells were washed once with warm HBSS before being simultaneously incubated with 0.5 µM of MitoSOX™ red (Thermo Fisher Scientific) and 1 µM of calcein AM for 30 min at 37 °C. Next, the cells were again washed with HBSS and fresh HBSS was added to maintain cell viability during live-image acquisition on a fluorescence microscope Leica-DFC9000GTC (Leica). The cells were kept under controlled environmental conditions, and similar image acquisition parameters were used for all images, as explained before. We acquired ten to fifteen images per condition, from different view fields across triplicates, with a 200 × magnification (20 × objective, 10 × intermediate magnification). Quantification of MitoSOX and calcein AM FI was performed using the ImageJ software. Briefly, TIFF exported images were submitted to background subtraction using the rolling ball method with a radius of 50 pixels. Channel-specific thresholds were applied to all images to define the ROI, and the FI were measured as integrated density and reported as arbitrary units (a. u.). The MitoSOX FI was normalized to cell viability estimated by calcein AM FI, to obtain a MitoSOX FI/calcein FI ratio. The average ratio of the different view fields per experimental condition was taken and reported as fold change relative to the control (DMSO-treated) condition.

[3] = system: LUHMES cells; assay: Neurite arborization analysis (Tuj-1 immunofluorescence)
Description: Cells were seeded in differentiation medium, onto 24-well microplates containing PLO/FN coated 13 mm Ø coverslips, and submitted to the described pharmacological treatments for 48 h. After this period, the medium was removed and cells were washed once with warm HBSS, and fixed with 4% PFA (paraformaldehyde) in PBS, for 20 min at RT (room temperature). After fixation, cells were washed twice with PBS and permeabilized with 0.1% Triton™ X-100 in PBS, for 20 min at RT. Next, cells were blocked in 1.5% NHS (normal horse serum) in PBS, for 1 h at RT, and incubated overnight with 1:1,000 Tuj-1 Alex 549-conjugated antibody (#801208, BioLegend, San Diego, CA, USA) in 1.5% NHS in PBS. After washing three times with PBS, cell nuclei were stained with 1:5,000 DAPI (4ʹ,6-diamidino-2-phenylindole, Thermo Fisher Scientific) in PBS, for 15 min at RT. The coverslips were mounted in mowiol, and left to dry for 24 h before imaging. Ten to fifteen images per condition, across triplicates, from different fields of view were taken on a fluorescence microscope Leica-DFC9000GTC (Leica) with 200 × magnification (20 × objective, 10 × intermediate magnification). Identical acquisition parameters were used for all images. Neurites density and arborization were quantified on TIFF exported images using the “neurite analyzer” plugin described before. The average value of the different view fields per experimental condition was taken and reported as fold change compared to the control (DMSO-treated) condition.

[4] = 15 μM ezetimibe + 20 nM annonacin
[5] = protective concentration of compound + 20 nM annonacin

Q: Which 4R-/3R-tau isoforms ratio ([1]; 20 nM annonacin alone) does the source give for `CCCCCCCCCCCC[C@@H](O)[C@H]1CC[C@H]([C@H](O)CCCC[C@H](O)CCCCC[C@@H](O)CC2=CC(C)OC2=O)O1` (some centres unmarked) [annonacin] here?
A: 3.5 fold over control

Q: And the “upregulation of 4R-tau transcripts over control cells” value ([1]; 20 nM annonacin alone)?
A: twofold

Q: And the MitoSOX fluorescence intensity ([2]; 20 nM annonacin alone)?
A: no major changes in MitoSOX fluorescence intensity

Q: What about the MitoSOX/calcein ratio ([2]; 20 nM annonacin alone) of the same molecule?
A: significantly increased

Q: And the “number of quadruple points” value ([3]; 20 nM annonacin alone)?
A: 0.31 fold over control

Q: What about the total branch length ([3]; 20 nM annonacin alone) of the same molecule?
A: 0.44 fold over control

Q: With `O=C1[C@H](CC[C@H](O)c2ccc(F)cc2)[C@@H](c2ccc(O)cc2)N1c1ccc(F)cc1` [ezetimibe] as the molecule, how does the 4R-/3R-tau isoforms ratio [1, 4] read?
A: remained similar to healthy control cells

Q: What about the 4R-tau transcripts [1, 4] of the same molecule?
A: prevented the annonacin-induced upregulation of 4R-tau transcripts

Q: And the MitoSOX/calcein ratio [2, 5]?
A: to control levels

Q: What about the “number of quadruple points” value [3, 5] of the same molecule?
A: 0.71 fold over control

Q: And the total branch length [3, 5]?
A: significantly denser neural arborizations compared with the annonacin condition

Q: Which MitoSOX/calcein ratio [2, 5] does the source give for `Cn1c(Nc2nc3ccc(C(F)(F)F)cc3s2)nc2cc(C(=O)NCCOCCO)ccc21` [HPP-D] here?
A: to control levels

Q: And the “number of quadruple points” value [3, 5]?
A: approximately 0.50 fold over control

Q: And the total branch length [3, 5]?
A: significantly denser neural arborizations compared with the annonacin condition

Q: Which results are given for `C=CC(C)(C)c1cc(/C=C/C(=O)c2ccc(O)cc2)c(OC)cc1O` [licochalcone A]?
A: MitoSOX/calcein ratio [2, 5]: to levels below control; number of quadruple points [3, 5]: 0.81 fold over control; total branch length [3, 5]: significantly denser neural arborizations compared with the annonacin condition
